The source of these data is patent publication US20170253607A1, “LONG-ACTING HIV PROTEASE INHIBITOR” (Shionogi & Co., Ltd., priority 2014, published 2017).

The target in the assay is HIV-1 PR (Human immunodeficiency virus type 1 group M subtype B, UniProt P04585). Briefly: HIV-protease inhibitory activity assay (FRET peptide substrate). The conditions noted are these: Test Example 1. The assay is classed as biochemical. The procedure, abridged: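 Fluorescence recovery at ex 485/em 535 nm reports cleavage of a quenched FRET peptide (2 μmol/L final) by 0.83 ng enzyme over 60 minutes at room temperature. Buffer was NaAc pH 4.8 with NaCl, EDTA, DTT and Tween 20. IC50 values came from four-parameter logistic regression of % inhibition.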
With `COc1ccc(S(=O)(=O)N(CC(C)C)C[C@@H](O)[C@H](Cc2ccc(NCc3sc4c(c3C(=O)O)CC(C)(C)CC4)cc2)NC(=O)O[C@H]2CO[C@@]3(C)OCC[C@@H]23)cc1` [Compound I-14], the IC50 is 1.7 nM.
To `COc1ccc(S(=O)(=O)N(CC(C)C)CC(O)C(Cc2ccc(NCC3(c4ccc(-c5sc6c(c5C(=O)O)CC(C)(C)CC6)cc4)CCCC3)cc2)NC(=O)OC2COC3(C)OCCC23)cc1` (centres unmarked) [Compound I-340] belongs 5.6 nM.
`COc1ccc(S(=O)(=O)N(CC(C)C)CC(O)C(Cc2ccc(N(C)Cc3ccc(Oc4ccccc4)cc3-c3sc4c(c3C(=O)O)CC(C)(C)CC4)cc2)NC(=O)OC2COC3(C)OCCC23)cc1` (centres unmarked) [Compound I-696]: the IC50 was 12.2 nM.
Under `COc1ccc(S(=O)(=O)N(CC(C)C)CC(O)C(Cc2ccc(N(C)Cc3ccccc3NC(=O)c3sc4c(c3C(=O)O)CC(C)(C)CC4)cc2)NC(=O)OC2COC3(C)OCCC23)cc1` (centres unmarked) [Compound I-587] stands 1.71 nM; under `CC(C)CN(C[C@@H](O)[C@H](Cc1ccccc1)NC(=O)O[C@H]1CO[C@@]2(C)OCC[C@@H]12)S(=O)(=O)c1ccc2nc(NCCCCOc3ccc(-c4sc5c(c4C(=O)O)CC(C)(C)CC5)cc3)sc2c1` [Compound I-27], 3.7 nM; under `COc1ccc(S(=O)(=O)N(CC(C)C)CC(O)C(Cc2ccc(NCc3ccc(Cl)cc3C(=O)Nc3sc4c(c3C(=O)O)CC(C)(C)CC4)cc2)NC(=O)OC2COC3(C)OCCC23)cc1` (centres unmarked) [Compound I-657], 8.14 nM.
Under `COc1ccc(S(=O)(=O)N(CC(C)C)CC(O)C(Cc2ccc(N(C)C3Cc4cccc(-c5sc6c(c5C(=O)O)CC(C)(C)CC6)c4C3)cc2)NC(=O)OC2COC3(C)OCCC23)cc1` (centres unmarked) [Compound I-404] stands 1.88 nM; under `COc1ccc(S(=O)(=O)N(CC(C)C)CC(O)C(Cc2ccc(N(C)Cc3nc(N4CCN(C)CC4)sc3-c3sc4c(c3C(=O)O)CC(C)(C)CC4)cc2)NC(=O)OC2COC3(C)OCCC23)cc1` (centres unmarked) [Compound I-758], 1.62 nM.
To `COc1ccc(S(=O)(=O)N(CC(C)C)CC(O)C(Cc2ccc(N3C(=O)c4cccc(-c5sc6c(c5C(=O)O)CC(C)(C)CC6)c4C3=O)cc2)NC(=O)OC2COC3(C)OCCC23)cc1` (centres unmarked) [Compound I-620] belongs 2.22 nM.
With `COc1ccc(S(=O)(=O)N(CC(C)C)C[C@@H](O)[C@H](Cc2ccc(OCc3ccc(-c4ccc(F)cc4F)cc3-c3nnn[nH]3)cc2)NC(=O)O[C@H]2CO[C@@]3(C)OCC[C@@H]23)cc1` [Compound I-22], the midpoint of inhibition, the IC50, lay at 0.99 nM.
Under `COc1ccc(S(=O)(=O)N(CC(C)C)CC(O)C(Cc2ccc(NCC3=C(c4sc5c(c4C(=O)O)CC(C)(C)CC5)COC3)cc2)NC(=O)OC2COC3(C)OCCC23)cc1` (centres unmarked) [Compound I-527] stands 1.99 nM.
To `COc1ccc(S(=O)(=O)N(CC(C)C)CC(O)C(Cc2ccc(N(C)Cc3cc(N4CCOCC4)ccc3-c3sc4c(c3C(=O)O)CC(C)(C)CC4)cc2)NC(=O)OC2COC3(C)OCCC23)cc1` (centres unmarked) [Compound I-700] belongs 2.02 nM; to `COc1ccc(S(=O)(=O)N(CC(C)C)CC(O)C(Cc2ccc(NCc3ccc(C#N)cc3-c3sc4c(c3C(=O)O)CC(C)(C)CC4)cc2)NC(=O)OC2COC3(C)OCCC23)cc1` (centres unmarked) [Compound I-565], 1.75 nM; to `COc1ccc(S(=O)(=O)N(CC(C)C)CC(O)C(Cc2ccc(OCc3ccccc3-c3sc4c(c3C(=O)O)C3CC(C4)C3(C)C)cc2)NC(=O)OC2COC3OCCC23)cc1` (centres unmarked) [Compound I-829], 1.2 nM.
`CC(C)CN(CC(O)C(Cc1ccc(OCc2ccccc2-c2sc3c(c2C(=O)O)CC(C)(C)CC3)cc1)NC(=O)OC1COC2(C)OCCC12)S(=O)(=O)c1ccc2nc(N(C)CCc3ccccc3)sc2c1` (centres unmarked) [Compound I-794]: the IC50 was 38.4 nM.
To `COc1ccc(S(=O)(=O)N(CC(C)C)CC(O)C(Cc2ccc(CN(C)C3CCCCC3c3sc4c(c3C(=O)O)CC(C)(C)CC4)cc2)NC(=O)OC2COC3(C)OCCC23)cc1` (centres unmarked) [Compound I-345] belongs 1.82 nM.
As to `COc1ccc(S(=O)(=O)N(CC(C)C)CC(O)C(Cc2ccc(OC3CCC(c4sc5c(c4C(=O)O)CC(C)(C)CC5)CC3)cc2)NC(=O)OC2COC3(C)OCCC23)cc1` (centres unmarked) [Compound I-203], the IC50 came out at 5.02 nM.
To `COc1ccc(S(=O)(=O)N(CC(C)C)CC(O)C(Cc2ccc(N(C)CCOc3ccccc3-c3sc4c(c3C(=O)O)CC(C)(C)CC4)cc2)NC(=O)OC2COC3(C)OCCC23)cc1` (centres unmarked) [Compound I-647] belongs 2.59 nM; to `COc1ccc(S(=O)(=O)N(CC(C)C)CC(O)C(Cc2ccc(NCc3cc4c(cc3-c3sc5c(c3C(=O)O)CC(C)(C)CC5)OCC(=O)N4)cc2)NC(=O)OC2COC3(C)OCCC23)cc1` (centres unmarked) [Compound I-754], 2.49 nM; to `COc1ccc(S(=O)(=O)N(CC(C)C)CC(O)C(Cc2ccc(CN3CCc4c(cccc4-c4sc5c(c4C(=O)O)CC(C)(C)CC5)C3)cc2)NC(=O)OC2COC3(C)OCCC23)cc1` (centres unmarked) [Compound I-388], 1.53 nM.
To `COc1ccc(S(=O)(=O)N(CC(C)C)CC(O)C(Cc2ccc(OC3CCCN(c4ccc(C#N)cc4-c4sc5c(c4C(=O)O)CC(C)(C)CC5)C3)cc2)NC(=O)OC2COC3(C)OCCC23)cc1` (centres unmarked) [Compound I-332] belongs 7.39 nM; to `CC(C)CN(CC(O)C(Cc1ccc(Oc2ccc(-c3ccc(F)cc3F)cc2C(=O)O)cc1)NC(=O)OC1COC2(C)OCCC12)S(=O)(=O)c1ccc2ncsc2c1` (centres unmarked) [Compound I-59], 1.19 nM.
The compound `COc1ccc(S(=O)(=O)N(CC(C)C)CC(O)C(Cc2ccc(NCc3ccccc3NC(=O)Nc3sc4c(c3C(=O)O)CC(C)(C)CC4)cc2)NC(=O)OC2COC3OCCC23)cc1` (centres unmarked) [Compound I-884] displayed an IC50 of 2.03 nM.
To `CC(C)CN(CC(O)C(Cc1ccc(NCc2cc(C(F)(F)F)ccc2-c2sc3c(c2C(=O)O)CC(C)(C)CC3)cc1)NC(=O)OC1COC2OCCC12)S(=O)(=O)c1ccc2c(c1)OCO2` (centres unmarked) [Compound I-874] belongs 5.12 nM.
The compound `COc1ccc(S(=O)(=O)N(CC(C)C)CC(O)C(Cc2ccc(N(C)Cc3cc4c(cc3-c3sc5c(c3C(=O)O)CC(C)(C)CC5)OCC(=O)N4C)cc2)NC(=O)OC2COC3(C)OCCC23)cc1` (centres unmarked) [Compound I-768] yielded an IC50 of 2.95 nM.
As for `COc1ccc(S(=O)(=O)N(CC(C)C)CC(O)C(Cc2ccc(NCc3c(F)cccc3C(=O)Nc3sc4c(c3C(=O)O)CC(C)(C)CC4)cc2)NC(=O)OC2COC3(C)OCCC23)cc1` (centres unmarked) [Compound I-748], the IC50 came out at 2.39 nM.
Under `COc1ccc(S(=O)(=O)N(CC(C)C)CC(O)C(Cc2ccc(NCC3CC(C)(C)CC3c3sc4c(c3C(=O)O)CC(C)(C)CC4)cc2)NC(=O)OC2COC3(C)OCCC23)cc1` (centres unmarked) [Compound I-735] stands 1.56 nM.
Under `COc1ccc(S(=O)(=O)N(CC(C)C)CC(O)C(Cc2ccc(NCC3=C(c4sc5c(c4C(=O)O)CC(C)(C)CC5)CN(C(=O)O)C3)cc2)NC(=O)OC2COC3(C)OCCC23)cc1` (centres unmarked) [Compound I-402] stands 1.89 nM; under `COc1ccc(S(=O)(=O)N(CC(C)C)CC(O)C(Cc2ccc(OC3CCN(C(=O)Nc4ccc(Cl)cc4-c4sc5c(c4C(=O)O)CC(C)(C)CC5)C3)cc2)NC(=O)OC2COC3(C)OCCC23)cc1` (centres unmarked) [Compound I-244], 2.01 nM; under `COc1ccc(S(=O)(=O)N(CC(C)C)CC(O)C(Cc2ccc(NCC3=C(c4sc5c(c4C(=O)O)CC(C)(C)CC5)CCC(F)(F)C3)cc2)NC(=O)OC2COC3OCCC23)cc1` (centres unmarked) [Compound I-880], 4.7 nM.
Compound `COc1ccc(S(=O)(=O)N(CC(C)C)CC(O)C(Cc2ccc(OC3CCN(Cc4ccccc4-c4sc5c(c4C(=O)O)CC(C)(C)CC5)C3)cc2)NC(=O)OC2COC3(C)OCCC23)cc1` (centres unmarked) [Compound I-207] came in with an IC50 of 2.1 nM.
To `COc1ccc(S(=O)(=O)N(CC(C)C)CC(O)C(Cc2ccc(Oc3ccc(-c4sc5c(c4C(=O)O)CC(C)(C)CC5)c(C(F)(F)F)c3)cc2)NC(=O)OC2COC3(C)OCCC23)cc1` (centres unmarked) [Compound I-135] belongs 6.8 nM.
To `COc1ccc(S(=O)(=O)N(CC(C)C)CC(O)C(Cc2ccc(NCc3cc(-c4sc5c(c4C(=O)O)CC(C)(C)CC5)ccc3OC(F)(F)F)cc2)NC(=O)OC2COC3(C)OCCC23)cc1` (centres unmarked) [Compound I-294] belongs 3.92 nM.
Compound `COc1ccc(S(=O)(=O)N(CC(C)C)CC(O)C(Cc2ccc(NCc3cc(C)cc(-c4sc5c(c4C(=O)O)CC(C)(C)CC5)c3)cc2)NC(=O)OC2COC3(C)OCCC23)cc1` (centres unmarked) [Compound I-549] registered an IC50 of 1.55 nM.
To `COc1ccc(S(=O)(=O)N(CC(C)C)CC(O)C(Cc2ccc(N(C)Cc3nc(N4CCCCC4)sc3-c3sc4c(c3C(=O)O)CC(C)(C)CC4)cc2)NC(=O)OC2COC3(C)OCCC23)cc1` (centres unmarked) [Compound I-756] belongs 3.46 nM; to `COc1ccc(S(=O)(=O)N(CC(C)C)CC(O)C(Cc2ccc(N3CC(Oc4ccc(-c5sc6c(c5C(=O)O)CC(C)(C)CC6)cc4)C3)cc2)NC(=O)OC2COC3(C)OCCC23)cc1` (centres unmarked) [Compound I-370], 5.02 nM; to `COc1ccc(S(=O)(=O)N(CC(C)C)C[C@@H](O)[C@H](Cc2ccccc2)NC(=O)O[C@H]2CO[C@@]3(CNC(=O)/C=C/c4sc5c(c4C(=O)O)CC(C)(C)CC5)OCC[C@@H]23)cc1` [Compound I-31], 0.73 nM.
In turn, `COc1ccc(S(=O)(=O)N(CC(C)C)CC(O)C(Cc2ccc(N(C)Cc3cc(OC)ccc3C(=O)Nc3sc4c(c3C(=O)O)CC(C)(C)CC4)cc2)NC(=O)OC2COC3(C)OCCC23)cc1` (centres unmarked) [Compound I-762] showed an IC50 of 6.23 nM.
Consider `COc1ccc(S(=O)(=O)N(CC(C)C)CC(O)C(Cc2ccc(N3CCC(Oc4cccc(-c5sc6c(c5C(=O)O)CC(C)(C)CC6)c4C)C3)cc2)NC(=O)OC2COC3(C)OCCC23)cc1` (centres unmarked) [Compound I-597], for which the IC50 was determined as 7.37 nM.
Compound `COc1ccc(S(=O)(=O)N(CC(C)C)CC(O)C(Cc2ccc(NCc3nc(-c4sc5c(c4C(=O)O)CC(C)(C)CC5)cs3)cc2)NC(=O)OC2COC3(C)OCCC23)cc1` (centres unmarked) [Compound I-289] had an IC50 of 2.4 nM.
Under `COc1ccc(S(=O)(=O)N(CC(C)C)CC(O)C(Cc2ccc(NCc3ccccc3-c3c(C(=O)O)[nH]c4c3CCCC4=O)cc2)NC(=O)OC2COC3(C)OCCC23)cc1` (centres unmarked) [Compound I-495] stands 1.48 nM.

One may read the IC50 as the point on the concentration scale where inhibition reaches its midpoint.
